Target: T1, rat ASIC1a (Rattus norvegicus, UniProt P55926)
T1 construct: expressed in transfected cells; host or cells: HEK293
T1 sequence (P55926 1-526): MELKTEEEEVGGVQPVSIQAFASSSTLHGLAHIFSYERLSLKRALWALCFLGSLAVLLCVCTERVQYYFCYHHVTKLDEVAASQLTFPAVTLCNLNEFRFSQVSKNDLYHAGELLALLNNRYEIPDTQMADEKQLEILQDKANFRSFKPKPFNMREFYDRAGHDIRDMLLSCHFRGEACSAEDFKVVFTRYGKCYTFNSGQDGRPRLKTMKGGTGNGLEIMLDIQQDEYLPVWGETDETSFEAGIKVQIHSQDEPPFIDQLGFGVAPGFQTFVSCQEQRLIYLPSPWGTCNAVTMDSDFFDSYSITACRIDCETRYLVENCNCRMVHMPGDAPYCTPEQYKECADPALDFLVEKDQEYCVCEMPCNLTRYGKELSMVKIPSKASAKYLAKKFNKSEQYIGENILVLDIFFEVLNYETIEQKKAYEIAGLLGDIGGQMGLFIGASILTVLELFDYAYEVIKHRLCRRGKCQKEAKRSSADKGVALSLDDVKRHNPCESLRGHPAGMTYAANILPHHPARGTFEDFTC
Experiment: Whole-cell patch clamp of acid-induced peak inward currents in HEK293 transfected with rat ASIC1a
Format: cell-based
Settings: for inhibitory effect on acid-induced peak inward currents, rASIC1a: HEK293, voltage clamp, increasing concentrations; for potency as antagonist compared to amiloride, rASIC1a: full dose-inhibition curves, HEK293
Protocol: Another example of an in vitro assessment method consists of using mammalian heterologous expression systems, which are known to the skilled in the art, and include a variety of mammalian cell lines such as COS, HEK, e.g., HEK293 and/or CHO, cells. Cell lines are transfected with gated ion channel(s) and used to perform electrophysiology as follows:
All experiments are performed at room temperature (20-25° C.) in voltage clamp using conventional whole cell patch clamp methods (Neher, E., et al. (1978) Pfluegers Arch 375:219-228).
The amplifier used is the EPC-9 (HEKA-electronics, Lambrect, Germany) run by a Macintosh G3 computer via an ITC-16 interface. Experimental conditions are set with the Pulse-software accompanying the amplifier. Data is low pass filtered and sampled directly to hard-disk at a rate of 3 times the cut-off frequency.
Pipettes are pulled from borosilicate glass using a horizontal electrode puller (Zeitz-Instrumente, Augsburg, Germany). The pipette resistances are 2-3 MOhms in the salt solutions used in these experiments. The pipette electrode is a chloridized silver wire, and the reference is a silver chloride pellet electrode (In Vivo Metric, Healdsburg, USA) fixed to the experimental chamber. The electrodes are zeroed with the open pipette in the bath just prior to sealing.
Coverslips with the cells are transferred to a 15 μl experimental chamber mounted on the stage of an inverted microscope (IMT-2, Olympus) supplied with Nomarski optics. Cells are continuously superfused with extracellular saline at a rate of 2.5 ml/min. After giga-seal formation, the whole cell configuration is attained by suction. The cells are held at a holding voltage of −60 mV and at the start of each experiment the current is continuously measured for 45 s to ensure a stable baseline. Solutions of low pH (<7) are delivered to the chamber through a custom-made gravity-driven flowpipe, the tip of which is placed approximately 50 μm from the cell. Application is triggered when the tubing connected to the flowpipe is compressed by a valve controlled by the Pulse-software. Initially, low pH (in general, pH 6.5) is applied for 5 s every 60 s. The sample interval during application is 5501s. […] Current amplitudes are measured at the peak of the responses, and effect of the compounds is calculated as the amplitude at compound equilibrium divided by the amplitude of the current evoked by the pulse just before the compound was included. […]
HEK293 cells were transfected with rASIC1a or rASIC3 and were used to perform full dose-inhibition curves with Compound A, Compound H and amiloride. Results are expressed as a fraction of the control peak current obtained in the absence of the test substance.

SMILES	inhibitory effect on acid-induced peak inward currents, rASIC1a	potency as antagonist compared to amiloride, rASIC1a
COc1ccc(F)cc1-c1cc2c(c3c1CCN(C)C3)NC(=O)/C2=N/O [Compound A, 5-(5-fluoro-2-methoxyphenyl)-6,7,8,9-tetrahydro-3-(hydroxyimino)-8-methyl-1H-pyrrolo[3,2-h]isoquinoline-2(3H)-one]	dose-dependently inhibit	more potent antagonists as compared to amiloride
CCN1CCc2c(-c3ccccc3)cc3c(c2C1)NC(=O)/C3=N/O [Compound H, 5-phenyl-6,7,8,9-tetrahydro-3-(hydroxyimino)-8-ethyl-1H-pyrrolo[3,2-h]isoquinoline-2(3H)-one]	dose-dependently inhibit	more potent antagonists as compared to amiloride

Reference: patent US7718641B2, “Pyrrolo [3,4-H] isoquinoline compounds and methods for modulating gated ion channels” (Aros Pharma ApS, priority 2005, dated 2010)
